target: PARP7 (Homo sapiens (Human), UniProt Q7Z3E1); assay: Enzymatic assay for inhibition of PARP7: TR-FRET displacement of biotinylated Probe A from the TIPARP active site; assay type: binding; conditions: Table A-1
Summary of the method: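 TR-FRET, ex 320 nm / em 615 and 665 nm. Signal ratio reflects complex formation.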

PARP7, sequence (Q7Z3E1 whole entry): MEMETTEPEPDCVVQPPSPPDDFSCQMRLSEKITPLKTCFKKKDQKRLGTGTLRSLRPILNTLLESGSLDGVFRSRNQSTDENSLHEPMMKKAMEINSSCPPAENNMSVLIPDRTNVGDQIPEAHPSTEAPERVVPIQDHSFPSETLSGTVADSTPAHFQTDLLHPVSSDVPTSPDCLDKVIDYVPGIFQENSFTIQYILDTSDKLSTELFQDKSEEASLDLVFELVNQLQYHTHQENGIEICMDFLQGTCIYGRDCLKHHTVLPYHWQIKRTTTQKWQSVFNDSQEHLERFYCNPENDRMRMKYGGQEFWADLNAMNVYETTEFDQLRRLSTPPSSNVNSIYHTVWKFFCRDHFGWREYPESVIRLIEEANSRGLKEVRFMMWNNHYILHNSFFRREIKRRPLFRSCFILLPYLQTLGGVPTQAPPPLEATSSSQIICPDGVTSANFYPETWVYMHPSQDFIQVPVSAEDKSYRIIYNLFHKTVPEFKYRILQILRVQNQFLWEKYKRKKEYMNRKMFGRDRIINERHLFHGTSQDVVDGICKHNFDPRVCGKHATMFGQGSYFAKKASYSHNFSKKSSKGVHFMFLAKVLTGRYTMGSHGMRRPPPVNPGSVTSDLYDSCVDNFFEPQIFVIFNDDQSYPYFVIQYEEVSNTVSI

| IC50 | SMILES |
| --- | --- |
| < 100 nM | O=C(CCOC[C@H](CO)Nc1cn[nH]c(=O)c1C(F)(F)F)N1CCN(c2ncc(Cl)cn2)CC1 [Example 665, (S)-5-((1-(3-(4-(5-Chloropyrimidin-2-yl)piperazin-1-yl)-3-oxopropoxy)-3-hydroxypropan-2-yl)amino)-4-(trifluoromethyl)pyridazin-3(2H)-one] |
| ≥ 1000 nM | COC[C@H](COCCC(=O)N1CCN(c2ncc(C(F)(F)F)cn2)CC1)Oc1cn[nH]c(=O)c1Br [Example 667, (R)-4-Bromo-5-((1-methoxy-3-(3-oxo-3-(4-(5-(trifluoromethyl)pyrimidin-2-yl)piperazin-1-yl)propoxy)propan-2-yl)oxy)pyridazin-3(2H)-one] |
| < 100 nM | COC[C@@H](COCCC(=O)N1CCN(c2ncc(C(F)(F)F)cn2)CC1)Nc1cn[nH]c(=O)c1Br [Example 668, (S)-4-Bromo-5-((1-methoxy-3-(3-oxo-3-(4-(5-(trifluoromethyl)pyrimidin-2-yl)piperazin-1-yl)propoxy)propan-2-yl)amino)pyridazin-3(2H)-one] |
| < 100 nM | Cc1cnc(N2CCN(C(=O)CCOC[C@H](C)Nc3cn[nH]c(=O)c3C(F)(F)F)CC2)nc1 [Example 670, (S)-5-((1-(3-(4-(5-Methylpyrimidin-2-yl)piperazin-1-yl)-3-oxopropoxy)propan-2-yl)amino)-4-(trifluoromethyl)pyridazin-3(2H)-one] |
| < 100 nM | Cc1ccc(N2CCN(C(=O)CCOC[C@H](C)Nc3cn[nH]c(=O)c3C(F)(F)F)CC2)nc1 [Example 671, (S)-5-((1-(3-(4-(5-Methylpyridin-2-yl)piperazin-1-yl)-3-oxopropoxy)propan-2-yl)amino)-4-(trifluoromethyl)pyridazin-3(2H)-one] |
| < 100 nM | C[C@@H](COCCC(=O)N1CCN(c2ccccn2)CC1)Nc1cn[nH]c(=O)c1C(F)(F)F [Example 675, (S)-5-((1-(3-Oxo-3-(4-(pyridin-2-yl)piperazin-1-yl)propoxy)propan-2-yl)amino)-4-(trifluoromethyl)pyridazin-3(2H)-one] |
| < 100 nM | COC[C@@H](COCCC(=O)N1CCN(c2cnc(Cl)cn2)CC1)Nc1cn[nH]c(=O)c1C(F)(F)F [Example 678, (S)-5-((1-(3-(4-(5-Chloropyrazin-2-yl)piperazin-1-yl)-3-oxopropoxy)-3-methoxypropan-2-yl)amino)-4-(trifluoromethyl)pyridazin-3(2H)-one] |
| < 100 nM | C[C@@H](COCCC(=O)N1CCN(c2ncc(F)cn2)CC1)Nc1cn[nH]c(=O)c1C(F)(F)F [Example 679, (S)-5-((1-(3-(4-(5-Fluoropyrimidin-2-yl)piperazin-1-yl)-3-oxopropoxy)propan-2-yl)amino)-4-(trifluoromethyl)pyridazin-3(2H)-one] |
| < 100 nM | COC[C@@H](COCCC(=O)N1CCN(c2cnc(C(F)(F)F)cn2)CC1)Nc1cn[nH]c(=O)c1C(F)(F)F [Example 681, (S)-5-((1-Methoxy-3-(3-oxo-3-(4-(5-(trifluoromethyl)pyrazin-2-yl)piperazin-1-yl)propoxy)propan-2-yl)amino)-4-(trifluoromethyl)pyridazin-3(2H)-one] |
| < 100 nM | Cc1ccc(N2CCN(C(=O)CCOC[C@H](C)Oc3cn[nH]c(=O)c3C(F)(F)F)CC2)nc1 [Example 682, (S)-5-((1-(3-(4-(5-Methylpyridin-2-yl)piperazin-1-yl)-3-oxopropoxy)propan-2-yl)oxy)-4-(trifluoromethyl)pyridazin-3(2H)-one] |
| < 100 nM | C[C@@H](COCCC(=O)N1CCN(c2ccc(F)cn2)CC1)Nc1cn[nH]c(=O)c1C(F)(F)F [Example 684, (S)-5-((1-(3-(4-(5-Fluoropyridin-2-yl)piperazin-1-yl)-3-oxopropoxy)propan-2-yl)amino)-4-(trifluoromethyl)pyridazin-3(2H)-one] |
| < 100 nM | C[C@@H](COCCC(=O)N1CCN(c2ccc(C(F)(F)F)nc2)CC1)Nc1cn[nH]c(=O)c1C(F)(F)F [Example 685, (S)-5-((1-(3-Oxo-3-(4-(6-(trifluoromethyl)pyridin-3-yl)piperazin-1-yl)propoxy)propan-2-yl)amino)-4-(trifluoromethyl)pyridazin-3(2H)-one] |
| < 100 nM | COCC[C@@H](COCCC(=O)N1CCN(c2ncc(C(F)(F)F)cn2)CC1)Nc1cn[nH]c(=O)c1C(F)(F)F [Example 686, (S)-5-((4-Methoxy-1-(3-oxo-3-(4-(5-(trifluoromethyl)pyrimidin-2-yl)piperazin-1-yl)propoxy)butan-2-yl)amino)-4-(trifluoromethyl)pyridazin-3(2H)-one] |
| < 100 nM | COC[C@@H](COCCC(=O)N1CCN(c2ncc(C(F)(F)F)cn2)CC1)Sc1cn[nH]c(=O)c1C(F)(F)F [Example 691, (S)-5-((1-Methoxy-3-(3-oxo-3-(4-(5-(trifluoromethyl)pyrimidin-2-yl)piperazin-1-yl)propoxy)propan-2-yl)thio)-4-(trifluoromethyl)pyridazin-3(2H)-one] |

The remaining lines, values behind:

| SMILES | IC50 |
| --- | --- |
| C[C@@H](COCCC(=O)N1CCC(c2ncc(C(F)(F)F)cn2)CC1)Nc1cn[nH]c(=O)c1C(F)(F)F [Example 664, (S)-5-((1-(3-Oxo-3-(4-(5-(trifluoromethyl)pyrimidin-2-yl)piperidin-1-yl)propoxy)propan-2-yl)amino)-4-(trifluoromethyl)pyridazin-3(2H)-one] | < 100 nM |
| COC[C@@H](COCCC(=O)N1CCN(c2ncc(C(F)(F)F)cn2)CC1)Oc1cn[nH]c(=O)c1Br [Example 666, (S)-4-Bromo-5-((1-methoxy-3-(3-oxo-3-(4-(5-(trifluoromethyl)pyrimidin-2-yl)piperazin-1-yl)propoxy)propan-2-yl)oxy)pyridazin-3(2H)-one] | < 100 nM |
| C[C@@H](COCCC(=O)N1CCCN(c2ncc(C(F)(F)F)cn2)CC1)Nc1cn[nH]c(=O)c1C(F)(F)F [Example 669, (S)-5-((1-(3-Oxo-3-(4-(5-(trifluoromethyl)pyrimidin-2-yl)-1,4-diazepan-1-yl)propoxy)propan-2-yl)amino)-4-(trifluoromethyl)pyridazin-3(2H)-one] | < 100 nM |
| C[C@@H](COCCC(=O)N1CCN(c2ccc(CN)cn2)CC1)Oc1cn[nH]c(=O)c1C(F)(F)F [Example 673, (S)-5-((1-(3-(4-(5-(Aminomethyl)pyridin-2-yl)piperazin-1-yl)-3-oxopropoxy)propan-2-yl)oxy)-4-(trifluoromethyl)pyridazin-3(2H)-one] | < 100 nM |
| C[C@@H](COCCC(=O)N1CCN(c2cc(C(F)(F)F)ccn2)CC1)Nc1cn[nH]c(=O)c1C(F)(F)F [Example 674, (S)-5-((1-(3-Oxo-3-(4-(4-(trifluoromethyl)pyridin-2-yl)piperazin-1-yl)propoxy)propan-2-yl)amino)-4-(trifluoromethyl)pyridazin-3(2H)-one] | < 100 nM |
| C[C@@H](COCCC(=O)N1CCN(c2ncccc2C#N)CC1)Nc1cn[nH]c(=O)c1C(F)(F)F [Example 676, (S)-2-(4-(3-(2-((6-Oxo-5-(trifluoromethyl)-1,6-dihydropyridazin-4-yl)amino)propoxy)propanoyl)piperazin-1-yl)nicotinonitrile] | < 100 nM |
| C[C@@H](COCCC(=O)N1CCN(c2ncccc2C(F)(F)F)CC1)Nc1cn[nH]c(=O)c1C(F)(F)F [Example 677, (S)-5-((1-(3-Oxo-3-(4-(3-(trifluoromethyl)pyridin-2-yl)piperazin-1-yl)propoxy)propan-2-yl)amino)-4-(trifluoromethyl)pyridazin-3(2H)-one] | < 100 nM |
| C[C@@H](COCCC(=O)N1CCN(c2ncc(C#N)s2)CC1)Nc1cn[nH]c(=O)c1C(F)(F)F [Example 680, (S)-2-(4-(3-(2-((6-Oxo-5-(trifluoromethyl)-1,6-dihydropyridazin-4-yl)amino)propoxy)propanoyl)piperazin-1-yl)thiazole-5-carbonitrile] | < 100 nM |
| C[C@@H](COCCC(=O)N1CCN(c2cnc(C#N)cn2)CC1)Nc1cn[nH]c(=O)c1C(F)(F)F [Example 683, (S)-5-(4-(3-(2-((6-Oxo-5-(trifluoromethyl)-1,6-dihydropyridazin-4-yl)amino)propoxy)propanoyl)piperazin-1-yl)pyrazine-2-carbonitrile] | < 100 nM |
| Cc1cnc(N2CCN(C(=O)CCOC[C@H](C)Oc3cn[nH]c(=O)c3C(F)(F)F)CC2)nc1 [Example 687, (S)-5-((1-(3-(4-(5-Methylpyrimidin-2-yl)piperazin-1-yl)-3-oxopropoxy)propan-2-yl)oxy)-4-(trifluoromethyl)pyridazin-3(2H)-one] | < 100 nM |
| C[C@@H](COCCC(=O)N1CC[C@@H]2[C@H]1CCN2c1ncc(C(F)(F)F)cn1)Nc1cn[nH]c(=O)c1C(F)(F)F [Example 688, 5-(((S)-1-(3-Oxo-3-((3aR,6aR)-4-(5-(trifluoromethyl)pyrimidin-2-yl)hexahydropyrrolo[3,2-b]pyrrol-1(2H)-yl)propoxy)propan-2-yl)amino)-4-(trifluoromethyl)pyridazin-3(2H)-one] | < 100 nM |
| C[C@@H](COCCC(=O)N1CC[C@H]2[C@@H]1CCN2c1ncc(C(F)(F)F)cn1)Nc1cn[nH]c(=O)c1C(F)(F)F [Example 689, 5-(((S)-1-(3-Oxo-3-((3aS,6aS)-4-(5-(trifluoromethyl)pyrimidin-2-yl)hexahydropyrrolo[3,2-b]pyrrol-1(2H)-yl)propoxy)propan-2-yl)amino)-4-(trifluoromethyl)pyridazin-3(2H)-one] | 100 to 1000 nM |
| COC[C@@H](COCCC(=O)N1CCN(c2ncc(C)cn2)CC1)Nc1cn[nH]c(=O)c1C(F)(F)F [Example 690, (S)-5-((1-Methoxy-3-(3-(4-(5-methylpyrimidin-2-yl)piperazin-1-yl)-3-oxopropoxy)propan-2-yl)amino)-4-(trifluoromethyl)pyridazin-3(2H)-one] | < 100 nM |
| COC[C@@H](COCCC(=O)N1CCN(c2cnc(Cl)cn2)CC1)Nc1cn[nH]c(=O)c1Br [Example 693, (S)-4-Bromo-5-((1-(3-(4-(5-chloropyrazin-2-yl)piperazin-1-yl)-3-oxopropoxy)-3-methoxypropan-2-yl)amino)pyridazin-3(2H)-one] | < 100 nM |
